Two compounds from patent US4066650A, “Keto-aldehyde-amine addition products and method of making same” (priority 1975, dated 1978) can be followed below.

One data set concerns Sarcoma-180. Kind of data set: Anti-tumor action on subcutaneous Sarcoma-180 in mice. The format is in vivo, Swiss albino mice (Charles River CD-1 strain). Further details: ED: unit not given here. Conditions: for ED: tumorous mice. As for the experimental part:
On the eleventh day (tumer age 14 days) the test and control mice were sacrificed, the tumor or tumorous area was cut out, weighed and stored in formaldehyde for histological examination. At the same time the liver, kidneys, spleen, heart, and a piece of the small intestine were collected and stored in formaldehyde for histopathological evaluation of the effect of the drugs on these tissues and organs.
The anti-neoplastic action of the drugs was assayed by comparison of the tumor weight present in treated and control animals and expressed as the percent of controls average weight (T/C%). The presence of malignancy in the tumors or tumor-areas of the treated animals was verified by histological examination.
The reabsorption of tissue, formed between the inocculation of the cancer cells and the onset of the treatment is relatively slow. Treated animals even under strong cancerostatic action of the drugs show a small quantity (100-200 mg) of tissue in the area where the tumor cells where deposited. It is therefore difficult to tell the nature of these residual tissues by macroscopic examination. Most of these residual "lumps" are made up of connective tissues and necrotic, scar tissues. If it were regarded as neoplasia without histological examination the T/C% calculation would give an erratic result in the evaluation of the anti-cancer action of the compound. Histological examination of these "lumps" therefore is exceedingly important in order to arrive at a valid evaluation of the effectiveness of the drugs especially in short-term experiments (10 days) as carried out in the present assays.

Data set [1] relates to Sarcoma-180 tumor-bearing mice. Kind of data set: in vivo. Conditions: mouse, in vivo, ip. As for the experimental part:
(§1) The biological effects of methylglyoxal maleimide ("A") and methylglyoxal glutaconic imide ("B") were determined by tests on normal (non-tumorous) and subcutaneous Sarcoma-180 tumor-bearing mice. […] The compounds were administered by intraperitoneal route and the values were calculated by standard methods (Goldin A., in Meth.Can.Res. 4, p. 193, 1968).
(§2) The test solutions were prepared by dissolving either 38.72 mg of methylglyoxal maleimide ("A") or 5278 mg of methylglyoxal glutaconic imide ("B") in 100 ml of physiological saline. The pH of the solution was adjusted to 6.0, sterilized on Millipore filtration and stored in sterile vials at about 10° C. One […] of such solutions contained 0.387 mg of compound "A" or 52.78 mg of compound "B", respectively and when injected into mice of an average weight of 26 grams the dose was equivalent to 14.884 mg/kg of the compound "A" and 2030 mg/kg of the compound "B".
(§3) Random-bred Swiss albino mice (Charles River CD-1 strain, average weight 26±3 g, females) were inocculated with 25 million Sarcoma-180 cells (in about 0.25 ml of ascitic fluid, cell age 7 days) on the right scapular region. The animals were randomized on the 4th day after the inocculation with the cancer cells, placed in separate test groups of 10 mice per group (5 mice/cage) and weighed.
(§4) The compositions were injected at different dose levels, each dose being double the next-lower dose, with three test groups (30 mice) for each dose level. The injection was effected intraperitoneally into normal and tumor-bearing mice, starting on the fourth day after the inocculation with cancer, once daily for ten consecutive days. The volume of the injection at each dose level was brought up to 1.0 ml with saline. A proper number of normal and tumorous mice was treated with saline solution in the same manner, frequency and volume as a control experiment. The body weight change and mortality (acute toxicity) were recorded daily.

Data set [2] in a line: in vivo. The following applies: mouse, in vivo, ip. The method, then: as §1, §2, §3, §4
A short description of data set [3]: in vivo. Conditions: mouse, in vivo, ip. The method, then:
as §1
(§5) A thirty-day survival test was carried out with normal mice to determine any possible delayed toxicity.
as §2
(§6) Normal, non-tumor-bearing mice of the same strain, sex and weight were also randomized and placed in separate test groups.
(§7) The compositions were injected at different dose levels, each dose being double the next-lower dose, with three test groups (30 mice) for each dose level. The injection was effected intraperitoneally into normal and tumor-bearing mice, starting on the fourth day after the inocculation with cancer, once daily for ten consecutive days. […] A proper number of normal and tumorous mice was treated with saline solution in the same manner, frequency and volume as a control experiment. The body weight change and mortality (acute toxicity) were recorded daily.
(§8) A number of normal animals treated with the drugs in the same manner as the tumorous ones were also sacrificed on the eleventh day, and their organs were collected for histological examination.
This is another data set of the same source.

Data set [4] has as its system normal (non-tumorous) mice. Kind of data set: Acute toxicity (mortality), body weight change and 30-day survival in normal mice. The following applies: for Δ body wt: mouse, in vivo, ip. As for the experimental part:
as §1, §5, §2, §6, §7, §8

A short description of a further data set: Water solubility. The format is physicochemical.

Take `CC(=O)C(O)N1C(=O)C=CCC1=O` (stereo not shown) [Methylglyoxal-glutaconic imide, N'-(2-keto-propane-1-ol)-2,6-dioxopyridine]: the ED90 in the data set on Sarcoma-180 (Mus musculus, Sarcoma-180, ip, 240 h, read-out: ED90 (effective dose at 90% effectiveness)) is 210 mg/kg. Moreover, the “IT (therapeutic index LD10/ED90)” value in the data set on Sarcoma-180 (mice, i.p. daily for 10 days) was 6.23. Moreover, the ED with Sarcoma-180 (63.5 mg/kg i.p. daily for 10 days) is greater than 5; with Sarcoma-180 (127 mg/kg i.p. daily for 10 days) it was 55; in the data set with Sarcoma-180 (254 mg/kg i.p. daily for 10 days), 100; with Sarcoma-180 (508 mg/kg i.p. daily for 10 days), 100; in the data set on Sarcoma-180 (1016 mg/kg i.p. daily for 10 days), 100. Moreover, the Δ body wt entry in data set [1] (63.5 mg/kg) is given as “+0.6”; in data set [1] (127 mg/kg) it was “+0.35”; in data set [1] (254 mg/kg), “+0.4”; in data set [1] (508 mg/kg), “+0.1”; in data set [1] (1016 mg/kg), -0.3; in data set [4] (63.5 mg/kg) it was “+0.55”. The Δ body wt result in data set [4] (127 mg/kg) was “+0.3”; in data set [4] (254 mg/kg), “+0.15”; in data set [4] (508 mg/kg), -0.1; in data set [4] (1016 mg/kg), -0.1; in data set [4] (1524 mg/kg), -0.4. Besides, the mortality at 240 h in “in vivo [2]” (63.5 mg/kg) was determined as 0%; in “in vivo [2]” (127 mg/kg), 0%; in “in vivo [2]” (254 mg/kg), 0%; in the data set “in vivo [2]” (508 mg/kg), 0%; in “in vivo [2]” (1016 mg/kg) it was 0%; in “in vivo [2]” (2032 mg/kg), 100%. Further, the mortality at 240 h in the data set “in vivo [3]” (63.5 mg/kg) worked out at 0%; in the data set “in vivo [3]” (127 mg/kg), 0%; in “in vivo [3]” (254 mg/kg), 0%; in “in vivo [3]” (508 mg/kg) it was 0%; in “in vivo [3]” (1016 mg/kg), 0%; in “in vivo [3]” (2032 mg/kg), 100%. Also, the “LD10 (maximum tolerated dose at 10% lethality)” value in data set [4] (mice, i.p. daily for 10 days) is listed as 1310 mg;kg. In addition, in data set [4] (mice, i.p., volume below 1.0 ml/animal/day), the “effect of reduction in the total volume of injection on mortality” value is given as “increase in mortality”. The “30 day mortality rate of all treated nontumorous animals (compared with mortality in 10 days)” value in data set [4] (normal mice, i.p. daily for 10 days, 30 day observation) is on record as “identical”.

`CC(=O)C(O)N1C(=O)CCC1=O` (stereo not shown) [Methylglyoxal-succinimide, N-(2-keto-propane-1ol)-2,5diketo pyrrolidine]: the water solubility entry in the data set “Water solubility” is “high”.
